Experimental data: US20230012368A1 (Hoffmann-La Roche Inc., priority 2018, published 2023)
Counter-ions that a name gives are not always drawn.

Test system: Acinetobacter baumannii ATCC 17978
Assay: Antimicrobial susceptibility testing: 90% growth inhibitory concentration (IC90) determination
Format: cell-based
Settings: 90% growth inhibitory concentration; Acinetobacter baumannii ATCC17978; Iso-Sensitest broth, OD 600 nm over 16h; read-out: ATCC17978 IC90
Method in brief: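 Growth of the Acinetobacter baumannii strain was followed by optical density at 600 nm every 20 minutes for 16h at 35±2° C. Inoculum was ~5×10^(5) CFU/ml in Iso-Sensitest medium, with twofold compound dilutions (e.g. 50 to 0.097 μM final). The 90% inhibitory concentration was derived in log-phase growth.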

Row | SMILES | IC90
1 | Cc1cc(Nc2nccn3c(-c4ccc(OC(F)F)cc4)cnc23)ccc1C(=O)N(C)CCC1CCNCC1 [Example 81, 4-((3-(4-(difluoromethoxy)phenyl)imidazo[1,2-a]pyrazin-8-yl)amino)-N,2-dimethyl-N-(2-(piperidin-4-yl)ethyl)benzamide] | 200 nM
2 | COc1ccc(-c2cnc3c(Nc4ccc(C(=O)N(C)CCN5CCOC(CN(C)C)C5)c(C)c4)nccn23)cc1F (stereo not shown) [Example 108, N-[2-[2-[(dimethylamino)methyl]morpholin-4-yl]ethyl]-4-[[3-(3-fluoro-4-methoxy-phenyl)imidazo[1,2-a]pyrazin-8-yl]amino]-N,2-dimethyl-benzamide; formic acid] | 1200 nM

Same assay, conditions: Acinetobacter baumannii, ATCC17978, 16 h, 90% growth inhibitory concentration; Acinetobacter baumannii ATCC17978; Iso-Sensitest broth, OD 600 nm over 16h; read-out: ATCC17978 IC90

Row | SMILES | IC90
3 | COc1ccc(-c2cnc3c(Nc4ccc(C(=O)N(C)CC5OCC(N)CO5)c(C)c4)nccn23)cc1 (stereo not shown) [Example 153, N-((5-Amino-1,3-dioxan-2-yl)methyl)-4-((3-(4-methoxyphenyl)imidazo[1,2-a]pyrazin-8-yl)amino)-N,2-dimethylbenzamide] | 530 nM
4 | COc1ccc(-c2cnc3c(Nc4ccc(C(=O)N(C)CC(=O)N5CCNC(=O)C5)c(C)c4)nccn23)cc1F [Example 6] | 640 nM
5 | Cc1cc(Nc2nccn3c(-c4ccc(OC(F)F)cc4)cnc23)ccc1C(=O)NC(C)(C)CN1CCOCC1 [Example 222, 4-[[3-[4-(difluoromethoxy)phenyl]im-idazo[1,2-a]pyrazin-8-yl]amino]-2-methyl-N-(2-methyl-1-morpholin-4-ylpropan-2-yl)benzamide] | 1100 nM
6 | COc1ccc(-c2cnc3c(Nc4ccc(C(=O)NCCC5CCNCC5)c(C)c4)nccn23)cc1 [Example 191, 4-[[3-(4-methoxyphenyl)imidazo[1,2-a]pyrazin-8-yl]amino]-2-methyl-N-(2-piperidin-4-ylethyl)benzamide;hydrochlo-ride] | 330 nM
7 | Cc1cc(Nc2nccn3c(-c4ccc(OC(F)F)cc4)cnc23)ccc1C(=O)NCCC1CCNCC1 [Example 196, 4-[[3-[4-(difluoromethoxy)phenyl]im-idazo[1,2-a]pyrazin-8-yl]amino]-2-methyl-N-(2-piperidin-4-ylethyl)benzamide;hydrochlo-ride] | 380 nM
8 | CCc1cc(Nc2nccn3c(-c4ccc(OC)c(F)c4F)cnc23)ccc1C(=O)NCCNC(=O)[C@@H](N)CCCNC(=N)N [Example 121, N-[2-[[(2S)-2-amino-5-guanidino-pentanoyl]amino]ethyl]-4-[[3-(2,3-difluoro-4-methoxy-phenyl)imidazo[1,2-a]pyrazin-8-yl]amino]-2-ethyl-benzamide trifluoroacetate] | 280 nM
9 | Cc1cc(Nc2nccn3c(-c4ccc(OC(F)F)cc4)cnc23)ccc1C(=O)N(C)CC1(O)CCNCC1 [Example 260, 4-[[3-[4-(difluoromethoxy)phenyl]im-idazo[1,2-a]pyrazin-8-yl]amino]-N-[(4-hydroxypiperidin-4-yl)methyl]-N,2-dimethylbenzamide;hydrochlo-ride] | 4300 nM
10 | CCc1cc(Nc2nccn3c(-c4ccc(OC)cc4F)cnc23)ccc1C(=O)NCCCN [Example 280, N-(3-aminopropyl)-2-ethyl-4-[[3-(2-fluoro-4-methoxyphenyl)imidazo[1,2-a]pyrazin-8-yl]amino]benzamide;hydrochlo-ride] | 880 nM
11 | CCc1cc(Nc2nccn3c(-c4ccc(OCC#N)c(F)c4F)cnc23)ccc1C(=O)NCCNC(=O)[C@@H](N)CN [Example 145, 4-[[3-[4-(cyanomethoxy)-2,3-difluoro-phenyl]imidazo[1,2-a]pyrazin-8-yl]amino]-N-[2-[[(2S)-2,3-diaminopropanoyl]amino]ethyl]-2-ethyl-benzamide formate] | 150 nM
12 | CCc1cc(Nc2nccn3c(-c4ccc(OC)c(F)c4F)cnc23)ccc1C(=O)NCCN1CCC[C@H](N)C1=O [Example 347, N-[2-[(3S)-3-amino-2-oxopiperidin-1-yl]ethyl]-4-[[3-(2,3-difluoro-4-methoxyphenyl)imidazo[1,2-a]pyrazin-8-yl]amino]-2-ethylbenzamide] | 1100 nM
13 | CCc1cc(Nc2nccn3c(-c4ccc(OC)c(F)c4F)cnc23)ccc1C(=O)NCCCNC(=O)CN [Example 103, N-(3-(2-aminoacetamido)propyl)-4-((3-(2,3-difluoro-4-methoxyphenyl)imidazo [1,2-a]pyrazin-8-yl)amino)-2-ethylbenzamide hydrochloride] | 80 nM

Further lines, results first:

Row | IC90 | SMILES
14 | 710 nM | CCc1cc(Nc2nccn3c(-c4ccc(Oc5ccccn5)c(F)c4F)cnc23)ccc1C(=O)N[C@@H](C)CNC(=O)[C@@H](N)CCNC(=N)N [Example 456, N-[(1S)-2-[[(2S)-2-amino-4-guanidino-butanoyl]amino]-1-methyl-ethyl]-4-[[3-[2,3-difluoro-4-(2-pyridyloxy)phenyl]imidazo [1,2-a]pyrazin-8-yl]amino]-2-ethyl-benzamide; formic acid]
15 | 260 nM | C#CCCCNC(=O)c1ccc(Nc2nccn3c(-c4ccc(OC)c(F)c4F)cnc23)cc1CC [Example 481, 4-((3-(2,3-difluoro-4-methoxyphenyl)imidazo[1,2-a]pyrazin-8-yl)amino)-2-ethyl-N-(pent-4-yn-1-yl)benzamide]
16 | 730 nM | COc1ccc(-c2cnc3c(Nc4cc(F)c(C(=O)NCCCN)c(F)c4)nccn23)c(F)c1F [Example 435, N-(3-aminopropyl)-4-((3-(2,3-difluoro-4-methoxyphenyl)imidazo[1,2-a]pyrazin-8-yl)amino)-2,6-difluorobenzamide]
17 | 77 nM | CCc1cc(Nc2nccn3c(-c4ccc(OC)c(F)c4F)cnc23)ccc1C(=O)NCC1CCN(CC(=O)NCC2CCNC2)CC1 (stereo not shown) [Example 551, 4-((3-(2,3-difluoro-4-methoxyphenyl)imidazo[1,2-a]pyrazin-8-yl)amino)-2-ethyl-N-((1-(2-oxo-2-((pyrrolidin-3-ylmethyl)amino)ethyl)piperi-din-4-yl)methyl)benzamide bis(2,2,2-trifluoroacetate)]
18 | 66 nM | CCc1cc(Nc2nccn3c(-c4ccc(OC)c(F)c4F)cnc23)ccc1C(=O)NCC1CCNCC1 [Example 543, 4-((3-(2,3-difluoro-4-methoxyphenyl)imidazo[1,2-a]pyrazin-8-yl)amino)-2-ethyl-N-(piperidin-4-ylmethyl)benzamide formate]
19 | 320 nM | CCc1cc(Nc2nccn3c(-c4ccc(OC)c(F)c4F)cnc23)ccc1C(=O)N[C@@H](C)CNC(=O)[C@@H](N)CCCCN [Example 453, N-[(1S)-2-[[(2S)-2,6-diaminohexanoyl]amino]-1-methyl-ethyl]-4-[[3-(2,3-difluoro-4-methoxy-phenyl)imidazo[1,2-a]pyrazin-8-yl]amino]-2-ethyl-benzamide]
20 | 450 nM | CCc1cc(Nc2nccn3c(-c4ccc(OC(F)F)c(F)c4F)cnc23)ccc1C(=O)NCC1(CO)COC(=O)N1 (stereo not shown) [Example 409, 4-((3-(4-(difluoromethoxy)-2,3-difluorophenyl)imidazo[1,2-a]pyrazin-8-yl)amino)-2-ethyl-N-((4-(hydroxymethyl)-2-oxooxazolidin-4-yl)methyl)benzamide]
21 | 350 nM | CCc1cc(Nc2nccn3c(-c4ccc(OC)c(F)c4F)cnc23)ccc1C(=O)NCC(N)CO (stereo not shown) [Example 525, N-(2-amino-3-hydroxypropyl)-4-((3-(2,3-difluoro-4-methoxyphenyl)imidazo[1,2-a]pyrazin-8-yl)amino)-2-ethylbenzamide hydrochloride]
22 | 630 nM | COc1ccc(-c2cnc3c(Nc4cc(C)c(C(=O)NCCN)c(F)c4)nccn23)c(F)c1F [Example 467, N-(2-aminoethyl)-4-((3-(2,3-difluoro-4-methoxyphenyl)imidazo[1,2-a]pyrazin-8-yl)amino)-2-fluoro-6-methylbenzamide]
23 | 300 nM | COc1ccc(-c2cnc3c(Nc4ccc(C(=O)N[C@@H](C)CNC(=N)C(C)C)c(C)c4)nccn23)c(F)c1F [Example 499, 4-[[3-(2,3-difluoro-4-methoxyphenyl)imidazo[1,2-a]pyrazin-8-yl]amino]-2-methyl-#N!-[(2#S!)-1-(2-methylpropanimidoylamino)propan-2-yl]benzamide]
24 | 47 nM | N#CCOc1ccc(-c2cnc3c(Nc4ccc(C(=O)NCCCCN)c(Cl)c4)nccn23)c(F)c1F [Example 519, N-(4-aminobutyl)-2-chloro-4-((3-(4-(cyanomethoxy)-2,3-difluorophenyl)imidazo[1,2-a]pyrazin-8-yl)amino)benzamide]
25 | 80 nM | CCc1cc(Nc2nccn3c(-c4ccc(OC)c(F)c4F)cnc23)ccc1C(=O)NCc1ccncc1 [Example 560, 4-((3-(2,3-difluoro-4-methoxyphenyl)imidazo[1,2-a]pyrazin-8-yl)amino)-2-ethyl-N-(pyridin-4-ylmethyl)benzamide formate]
26 | 240 nM | CCc1cc(Nc2nccn3c(-c4ccc(OC)c(F)c4F)cnc23)ccc1C(=O)NCC(=O)N1CCN[C@H](CO)C1 [Example 464, 4-[[3-(2,3-difluoro-4-methoxy-phenyl)imidazo[1,2-a]pyrazin-8-yl]amino]-2-ethyl-N-[2-[(3S)-3-(hydroxymethyl)piperazin-1-yl]-2-oxo-ethyl]benzamide]
27 | 500 nM | COc1ccc(-c2cnc3c(Nc4ccc(C(=O)NC[C@H](N)CNC(=O)[C@@H]5C[C@@H](O)CN5)c(C)c4)nccn23)c(F)c1F [Example 469, (2S,4R)-N-[(2S)-2-amino-3-[[4-[[3-(2,3-difluoro-4-methoxy-phenyl)imidazo[1,2-a]pyrazin-8-yl]amino]-2-methyl-benzoyl]amino]propyl]-4-hydroxy-pyrrolidine-2-carboxamide; formic acid]
28 | 470 nM | COc1ccc(-c2cnc3c(Nc4ccc(C(=O)N5CCC(C(=O)NCC6CN(C)C6)CC5)c(C)c4)nccn23)cc1F [REF 114, 1-(4-((3-(3-fluoro-4-methoxyphenyl)imidazo [1,2-a]pyrazin-8-yl)amino)-2-methylbenzoyl)-N-((1-methylazetidin-3-yl)methyl)piperidine-4-carboxamide]
